Reference: patent publication US4371544A, “Pharmaceutical composition containing 1,1,3,5-substituted biuret compound” (Taiho Pharmaceutical Company Limited, priority 1979, dated 1983)
Like-named read-outs stand apart in the source and are kept apart here.

Tests used:
[1] = system: ddy strain of male mice; assay: Analgesic activity, acetic acid-induced stretching method; assay type: in vivo, mouse (ddy); details: for inhibition in vivo at 100 mg/kg: po
Method: (§1) Next, several tests for determining the pharmacological properties, in that acute toxicity, anti-pyretic activity, analgesic activity and anti-inflammatory activity of the present 1,1,3,5-substituted biuret compounds of the formula (1) were conducted and the test results are shown in Table (2). In the tests, each compounds to be tested was used as a suspension in 0.25% carboxymethylcellulose solution. Methods for testing are explained as follows:
According to the method reported by Koster et al., [Fed. Proc., Vol. 18, pp. 412 (1959)], the ddy strain of male mice (body weight, 20-25 g) were used as test animals. The mice were fasted overnight, 100 mg/kg body weight of the test compound was administered orally, then 1 hour after the administration, 0.2 ml of 0.7% acetic acid solution was injected intraperitoneally. The acetic acid-induced stretching symptom of mouse was observed. Analgesic activity of the test compound was calculated as the inhibitory ratio (%). In Table 2, the values in parentheses show the data obtained from the test by using the dosage other than 100 mg/kg body weight. Further, the values indicated with Δ marks show 50% effective dose, ED50 (mg/kg body weight).

[2] = system: Wistar strain of male rats; assay: Anti-inflammatory activity (acute carrageenin-induced inflammatory test, hindpaw); assay type: in vivo, rat (Wistar)
Method: as §1
According to the method of acute carrageenin-induced inflammatory test [Folia Pharmacologia Japonica, Vol. 56, pp. 575 (1960)], the Wistar strain of male rats (body weight, 150-180 g) were used as test animals. The rats were fasted overnight, 100 mg/kg body weight of the test compound was administered orally, then 1 hour after the administration, 0.1 ml of 1% carrageenin solution, as the inflammation inducing agent, was injected subcutaneously to the hindpaw of the rat and the volume of the hindpaw was measured at time sequences, Anti-inflammatory activity of the test compound was calculated as inflammation inhibitory ratio (%) at 3 hours after the injection of inflammation inducing agent.

[3] = system: Wistar strain of male rats; assay: Anti-pyretic activity (dry-yeast-induced fever); assay type: in vivo, rat (Wistar); details: oral (dose not given), up to 4 hours after administration
Method: as §1
According to the method reported by Tanabe [Folia Pharmacologia Japonica, Vol. 73, pp. 803 (1977)], the Wistar strain of male rats (150-180 g, body weight) were used as test animals. The rats were fasted overnight, and 1 ml/100 g (body weight) of 10% dry-yeast suspension were subcutaneously injected on the back of the rats. Five hours after the injection, the test compound was administered orally, then the body temperature of the rat was measured at time sequences. Anti-pyretic activity of the test compound was determined as the FI (febril index) by integrating pyrogenetic curve up to 4 hours after the administration of the test compound with time, and indicated as inhibitory ratio (%) shown by the following formula, [formula]

[4] = system: ddy strain of male mice; assay: Analgesic activity, Haffner method (morphine threshold dose, clamp); assay type: in vivo, mouse (ddy)
Method: as §1
According to the modified method reported by Fujimura et. al., [Bulletin of the Institute for Chemical Research, Kyoto University, No. 25, pp. 36 (1951)], the ddy strain of male mice (body weight, 20-25 g) were used as test animals. The mice were fasted overnight, 100 mg/kg body weight of the test compound was administered orally, then 45 minutes after the administration, the threshold amount (1.5-2.5 mg/kg body weight) of morphine hydrochloride was injected subcutaneously. Then 1-hour pain reaction of the mouse caused by a clamp was observed. Analgesic activity of the test compound was calculated as the inhibitory ratio (%). In Table 2, the values in parentheses show the data obtained from the test by using the dosage other than 100 mg/kg body weight. Further, the values indicated with Δ marks show 50% effective dose, ED50 (mg/kg body weight).

[5] = system: ddy strain of male mice; assay: Acute toxicity (oral, mice, 7 days observation); assay type: in vivo
Method: as §1
The ddy strain of male mice (body weight, 20-25 g) were used as test animals. The mice were fasted overnight and the compound to be tested was administered orally. […] The lethal dose (mg/kg, body weight) of the test compound was determined in connection with the death number of mice/the number of mice tested. In Table 2, the values indicated with Δ marks are 50% lethal dose, LD50 (mg/kg, body weight).

[6] = 100 mg/kg oral, 1 hour before acetic acid
[7] = 100 mg/kg oral, 3 hours after carrageenin
[8] = 100 mg/kg oral, 45 minutes before morphine hydrochloride
[9] = Rattus norvegicus, po, 3 h, read-out: Anti-inflammatory activity, inflammation inhibitory ratio
[10] = Mus musculus, read-out: Analgesic activity, acetic acid-induced stretching method, inhibitory ratio
[11] = Mus musculus, 100 mg/kg oral, 45 minutes before morphine hydrochloride, read-out: Analgesic activity, Haffner method, inhibitory ratio

| Compound | Anti-pyretic activity, inhibitory ratio (febril index) [3] [%] | Acute toxicity: death number of mice/number of mice tested ([5]; 500 mg/kg oral) | Analgesic activity, Haffner method, inhibitory ratio [4, 8] [%] | inhibition in vivo at 100 mg/kg [1, 10] [%] | inhibition in vivo at 100 mg/kg [4, 11] [%] | also measured |
| --- | --- | --- | --- | --- | --- | --- |
| CN(C)C(=O)N(C)C(=O)Nc1cccc(Cl)c1 [compound 11, 1,1,3-Trimethyl-5-(3-chlorophenyl)biuret] | 43 |  |  |  |  | Analgesic activity, acetic acid-induced stretching method, inhibitory ratio [1, 6]: 62.5%; Anti-inflammatory activity, inflammation inhibitory ratio ([2]; 100 mg/kg oral, (2 hours)): 30%; Analgesic activity, Haffner method, inhibitory ratio ([4]; 200 mg/kg oral): 75% |
| CN(C)C(=O)N(C)C(=O)Nc1ccc([N+](=O)[O-])cc1 [compound 20, 1,1,3-Trimethyl-5-(4-nitrophenyl)biuret] | 26 | 2/4 | 50 |  |  | Anti-inflammatory activity, inflammation inhibitory ratio [2, 7]: 32% |
| COc1cc(NC(=O)N(C)C(=O)N(C)C)cc(OC)c1OC [compound 25, 1,1,3-Trimethyl-5-(3,4,5-trimethoxyphenyl)biuret] | 23 | 0/4 | 62.5 |  |  | Anti-inflammatory activity, inflammation inhibitory ratio [2, 7]: 30%; Acute toxicity: death number of mice/number of mice tested ([5]; 1000 mg/kg oral): 2/4 |
| Cc1ccccc1NC(=O)N(C)C(=O)N(C)C [compound 26, 1,1,3-Trimethyl-5-(2-methylphenyl)biuret] | 41 |  | 50 |  |  | Analgesic activity, acetic acid-induced stretching method, inhibitory ratio [1, 6]: 37.5%; Anti-inflammatory activity, inflammation inhibitory ratio [2, 7]: 29% |
| CC(=O)c1ccc(NC(=O)N(C)C(=O)N(C)C)cc1 [compound 33, 1,1,3-Trimethyl-5-(4-acetylphenyl)biuret] | 36 | 0/4 | 37.5 |  |  | Anti-inflammatory activity, inflammation inhibitory ratio ([2]; 100 mg/kg oral, (2 hours)): 31%; Acute toxicity: death number of mice/number of mice tested ([5]; 1000 mg/kg oral): 4/4 |
| CN(C)C(=O)N(C)C(=O)NC1CCCCC1 [compound 35, 1,1,3-Trimethyl-5-cyclohexylbiuret] |  |  | 25 |  |  | Analgesic activity, acetic acid-induced stretching method, inhibitory ratio ([1]; 200 mg/kg oral): 87.5%; inhibition in vivo at 100 mg/kg [2, 9]: 24% |
| CCCCN(C)C(=O)NC(=O)Nc1ccccc1 [compound 47, 1-Methyl-1-n-butyl-5-phenylbiuret] |  |  |  | 50 | 25 | inhibition in vivo at 100 mg/kg ([2]; Rattus norvegicus, 100 mg/kg oral, 3 hours after carrageenin, read-out: Anti-inflammatory activity, inflammation inhibitory ratio): 20%; Acute toxicity: death number of mice/number of mice tested ([5]; 2000 mg/kg oral): 0/4 |
| CN(C(=O)Nc1ccccc1)C(=O)N1CC1 [compound 66, 1,1-Ethylene-3-methyl-5-phenylbiuret] | 28 | 4/4 |  | 62.5 | 25 | Acute toxicity: death number of mice/number of mice tested ([5]; 250 mg/kg oral): 2/4 |
| O=C(NC(=O)N1CCCC1)Nc1ccccc1 [compound 67, 1,1-Tetramethylene-5-phenylbiuret] |  |  |  | 50 | 37.5 | inhibition in vivo at 100 mg/kg [2, 9]: 33%; Acute toxicity: death number of mice/number of mice tested ([5]; 2000 mg/kg oral): 0/4 |
| O=C(NC(=O)N1CCOCC1)Nc1ccccc1 [compound 71, 1,1-(3-Oxapentamethylene)-5-phenylbiuret] |  |  |  |  |  | inhibition in vivo at 200 mg/kg ([1]; Mus musculus, 200 mg/kg oral, read-out: Analgesic activity, acetic acid-induced stretching method, inhibitory ratio): 40%; inhibition in vivo at 200 mg/kg [2, 9]: 23%; Acute toxicity: death number of mice/number of mice tested ([5]; mouse, in vivo): 0/4; inhibition in vivo at 200 mg/kg ([4]; Mus musculus, 200 mg/kg oral, read-out: Analgesic activity, Haffner method, inhibitory ratio): 50% |
| CN(C(=O)Nc1ccccc1)C(=O)N1CCOCC1 [compound 73, 1,1-(3-Oxapentamethylene)-3-methyl-5-phenylbiuret] | 17 |  |  | 50 | 25 | Acute toxicity: death number of mice/number of mice tested ([5]; mouse, in vivo): 0/4 |
